The subject of this assay is Mycosphaerella graminicola; Anamorph: Septoria tritici; Bayer Code SEPTTR. The assay is described as follows: Leaf blotch of wheat, foliar fungicide treatment, one day protectant (1DP) or three day curative (3DC). The format is in vivo, Septoria tritici on wheat plants (variety Yuma). As to conditions: Zymoseptoria tritici.
Setting [1] is: 24 h, one day protectant (1DP), 25 ppm, rating of percent disease control, read-out: SETTTR 1DP 25 ppm.
The mark [2] stands for this setting: 24 h, one day protectant (1DP), rating of percent disease control, read-out: SEPTTR 1DP 100 ppm.
Setting [3] is: 72 h, three day curative (3DC), 25 ppm, rating of percent disease control, read-out: SEPTTR 3DC 25 ppm.
Setting [4] is: 72 h, three day curative (3DC), rating of percent disease control, read-out: SEPTTR 3DC 100 ppm.
Setting [5] is: 24 h, one day protectant, 25 ppm, rating of percent disease control, read-out: SETTTR 1DP 25 ppm.
The mark [6] stands for this setting: 24 h, one day protectant, rating of percent disease control, read-out: SEPTTR 1DP 100 ppm.
Setting [7] is: 72 h, three day curative, 25 ppm, rating of percent disease control, read-out: SEPTTR 3DC 25 ppm.
The mark [8] stands for this setting: 72 h, three day curative, rating of percent disease control, read-out: SEPTTR 3DC 100 ppm.
Where [9] appears, read: 24 h, one day protectant (1DP), 25 ppm (first 1DP column), percent control rating, read-out: SETTTR 1DP 25 ppm.
Where [10] appears, read: 24 h, one day protectant (1DP), 25 ppm as printed (second 1DP column), percent control rating, read-out: SETTTR 1DP 25 ppm.
The mark [11] stands for this setting: 72 h, three day curative (3DC), 25 ppm, percent control rating, read-out: SEPTTR 3DC 25 ppm.
[12] abbreviates: 72 h, three day curative (3DC), percent control rating, read-out: SEPTTR 3DC 100 ppm.
The mark [13] stands for this setting: 24 h, one day protectant (1DP), 25 ppm, percent disease control rating, read-out: SETTTR 1DP 25 ppm.
[14] abbreviates: 24 h, one day protectant (1DP), percent disease control rating, read-out: SEPTTR 1DP 100 ppm.
Setting [15] is: 72 h, three day curative (3DC), 25 ppm, percent disease control rating, read-out: SEPTTR 3DC 25 ppm.
Setting [16] is: 72 h, three day curative (3DC), percent disease control rating, read-out: SEPTTR 3DC 100 ppm.

Like-named read-outs stand apart in the source and are kept apart here.

For the compound `Nc1nc(Oc2ccc(Cl)c3ccccc23)ncc1F` [Compound 378], the pest or weed control at 25 ppm reads like this: under setting [1], 51 to 75%; under setting [3], 76 to 100%. The pest or weed control at 100 ppm under setting [2] lay within 76 to 100% and the pest or weed control at 100 ppm under setting [4] fell in the range of 76 to 100%.
As to `CC[Si](CC)(CC)Nc1nc(Oc2ccc(OC)cc2)ncc1F` [Compound 605], the pest or weed control at 25 ppm by setting is: under setting [5], 51 to 75%; under setting [7], 0 to 25%. Also, the pest or weed control at 100 ppm by setting is: under setting [6], 76 to 100%; under setting [8], 76 to 100%.
In the case of `COc1ccccc1OC(=O)Oc1ncc(F)c(/N=C/N(C)C)n1` [Compound 444], the pest or weed control at 25 ppm under setting [1] was 76 to 100% and the pest or weed control at 25 ppm under setting [3] is 76 to 100%. The pest or weed control at 100 ppm under setting [2] lay within 76 to 100% and the pest or weed control at 100 ppm under setting [4] was 76 to 100%.
Take `COc1ncc(F)c(NNc2nccc(C(F)(F)F)n2)n1` [Compound 1049]: the pest or weed control at 25 ppm reads like this: under setting [9], 0 to 25%; under setting [10], 0 to 25%; under setting [11], 26 to 50%. For the same compound, under setting [12], the pest or weed control at 100 ppm was in the range of 26 to 50%.
Take `Cc1ccc(COc2ncc(F)c(N(N)c3ccccc3)n2)cc1` [Compound 102]: the pest or weed control at 25 ppm runs as follows: under setting [13], 0 to 25%; under setting [15], 0 to 25%. The pest or weed control at 100 ppm runs as follows: under setting [14], 0 to 25%; under setting [16], 26 to 50%.
Take `Nc1nc(OCc2ccnc(Cl)c2)ncc1F` [Compound 308]: the pest or weed control at 25 ppm by setting is: under setting [1], 76 to 100%; under setting [3], 76 to 100%. Also, the pest or weed control at 100 ppm runs as follows: under setting [2], 76 to 100%; under setting [4], 76 to 100%.
Consider `CN(C)/C=N/c1nc(OC(=O)Oc2cccc(C(F)(F)F)c2)ncc1F` [Compound 425], for which the pest or weed control at 25 ppm reads like this: under setting [1], 76 to 100%; under setting [3], 76 to 100%. The pest or weed control at 100 ppm reads like this: under setting [2], 76 to 100%; under setting [4], 76 to 100%.
As for `N#Cc1cccc(COc2ncc(F)c(NC(=S)Nc3ccccc3F)n2)c1` [Compound 781], the pest or weed control at 25 ppm is, setting by setting: under setting [1], 0 to 25%; under setting [3], 0 to 25%. Also, the pest or weed control at 100 ppm under setting [2] lay within 51 to 75% and the pest or weed control at 100 ppm under setting [4] is 26 to 50%.
As for `COc1cccc(COc2ncc(F)c(/N=C/N(C)C)n2)c1` [Compound 692], the pest or weed control at 25 ppm is 76 to 100% under setting [5] and 76 to 100% under setting [7]. Moreover, the pest or weed control at 100 ppm is, setting by setting: under setting [6], 76 to 100%; under setting [8], 76 to 100%.
As to `Nc1nc(OCc2ccccc2Br)ncc1F` [Compound 604], the pest or weed control at 25 ppm by setting is: under setting [5], 76 to 100%; under setting [7], 76 to 100%. The pest or weed control at 100 ppm under setting [6] fell in the range of 76 to 100% and the pest or weed control at 100 ppm under setting [8] fell in the range of 76 to 100%.
Turning to `CC[Si](CC)(CC)Nc1nc(OCc2ccn(C)n2)ncc1F` [Compound 434], the pest or weed control at 25 ppm reads like this: under setting [1], 76 to 100%; under setting [3], 76 to 100%. For the same compound, the pest or weed control at 100 ppm lay in the range of 76 to 100% under setting [2] and 76 to 100% under setting [4].
`Cc1ccc(COc2ncc(F)c(NS(=O)(=O)c3ccccc3)n2)cc1` [Compound 994]: the pest or weed control at 25 ppm was 0 to 25% under setting [9], 26 to 50% under setting [10] and 0 to 25% under setting [11]. In addition, the pest or weed control at 100 ppm under setting [12] was 0 to 25%.
For the compound `Nc1nc(OCc2ccccc2Cn2cncn2)ncc1F` [Compound 383], the pest or weed control at 25 ppm lay within 0 to 25% under setting [1] and 26 to 50% under setting [3]. Also, the pest or weed control at 100 ppm runs as follows: under setting [2], 0 to 25%; under setting [4], 0 to 25%.
Regarding `Nc1nc(OCc2cccc(Oc3ccccc3)c2)ncc1F` [Compound 878], the pest or weed control at 50 ppm (24 h, % disease control rating, one day protectant, 50 ppm) was in the range of 76 to 100%. For the same compound, the pest or weed control at 200 ppm (24 h, % disease control rating, one day protectant, 200 ppm) fell in the range of 76 to 100%.
For `Nc1nc(OCc2nc3ccccc3s2)ncc1F` [Compound 104], the pest or weed control at 25 ppm reads like this: under setting [13], 76 to 100%; under setting [15], 76 to 100%. Moreover, the pest or weed control at 100 ppm reads like this: under setting [14], 76 to 100%; under setting [16], 76 to 100%.

The record behind these values is patent publication US9204653B2, “5-fluoro pyrimidine derivatives” (DOW AGROSCIENCES LLC, priority 2008, dated 2015).
